# Like-named read-outs stand apart in the source and are kept apart here.
# Legend:
# [1] = system: DL1 cells; assay: cytotoxicity in Drosophila DL1 cells; assay type: cell-based; details: DL1 cells; for IC50: Drosophila melanogaster, cytotoxicity
# Experimental: (§1) We screened the DDPs on the Drosophila assay system for cytotoxicity, inhibitory activity of innate immune signalling and insecticidal activity. The cytotoxicity of the DDPs was evaluated using two cell lines, embryonic macrophage-derived DL1 cells[58]–[60] and larval blood cell-derived l(2)mbn cells, and their IC50 values are listed in Supplementary Table 23.
# [2] = cytotoxicity in Drosophila DL1 cells; assay type: cell-based; details: Drosophila, DL1 cells (embryonic macrophage-derived), DL1 cells
# Experimental: as §1
# [3] = system: human immunodeficiency virus-1 (HIV-1); assay: anti-HIV MAGI assay; assay type: cell-based; details: Human immunodeficiency virus 1, MAGI, anti-HIV, MAGI assay; read-out: EC50
# Description: We examined the inhibitory activities of DDPs against various species of bacteria (both gram-negative and gram-positive bacteria), fungi and viruses. […] In contrast, preliminary screening of the DDPs for anti-viral agents with hepatitis B virus (HBV), measles virus (MV), Epstein-Barr virus (EBV), herpes simplex virus (HSV) and human immunodeficiency virus-1 (HIV-1) indicated their selective inhibition of HIV.
# [4] = system: l(2)mbn cells; assay: cytotoxicity in Drosophila l(2)mbn cells; assay type: cell-based; details: for Luminescence Raw1: replicate 1; for Luminescence Raw2: replicate 2; for IC50: Drosophila melanogaster, cytotoxicity
# Experimental: as §1
# [5] = cytotoxicity in Drosophila l(2)mbn cells; assay type: cell-based; details: Drosophila, l(2)mbn cells (larval blood cell-derived)
# Experimental: as §1
# [6] = system: MKN-B; assay: cells; design: species or system JFCR39 human cancer cell lines; JFCR39 panel growth inhibition, sulforhodamine B total protein after 48 h; details: 48 h; inhibitor; Log GI50, 48 h
# Experimental: (§2) Supplementary Note 24. Antiproliferative effects across the panel of JFCR39 cancer cell lines A panel of 39 human cancer cell lines, termed JFCR39, were previously described13-16. Cells were grown in RPMI-1640 (FUJIFILM Wako Pure Chemical Corporation, Tokyo, Japan) supplemented with 1 µg mL-1 kanamycin and 5% (v/v) fetal bovine serum (Nichirei Biosciences Inc, Tokyo, Japan) and incubated at 37°C in a humidified atmosphere supplemented with 5% CO2. Drug efficacy was assessed as changes in total cellular protein after 48 hours of drug treatment using a sulforhodamine B assay. Assays were done in duplicate and the GI50 was calculated as described previously13,16. The antitumor profile across the JFCR39 panel, or fingerprints were then compared to reference database containing ~2000 compounds by COMPARE algorithm16,17. Initially, we evaluated new DDP analogues for their antiproliferative activities across the panel of 39 human cancer cell lines, JFCR39[50],[51].
# [7] = system: A549; assay: cells; design: species or system JFCR39 human cancer cell lines; JFCR39 panel growth inhibition, sulforhodamine B total protein after 48 h; details: Homo sapiens, A549, 48 h
# Experimental: as §2
# [8] = system: LOX-IMVI; assay: cells; design: species or system JFCR39 human cancer cell lines; JFCR39 panel growth inhibition, sulforhodamine B total protein after 48 h; details: 48 h; inhibitor; Log GI50, 48 h
# Experimental: as §2
# [9] = system: NCI-H226; assay: cells; design: species or system JFCR39 human cancer cell lines; JFCR39 panel growth inhibition, sulforhodamine B total protein after 48 h; details: 48 h; inhibitor; Log GI50, 48 h
# Experimental: as §2
# [10] = system: NCI-H460; assay: cells; design: species or system JFCR39 human cancer cell lines; JFCR39 panel growth inhibition, sulforhodamine B total protein after 48 h; details: 48 h; inhibitor; Log GI50, 48 h
# Experimental: as §2
# [11] = system: ACHN; assay: cells; design: species or system JFCR39 human cancer cell lines; JFCR39 panel growth inhibition, sulforhodamine B total protein after 48 h; details: 48 h; inhibitor; Log GI50, 48 h
# Experimental: as §2
# [12] = system: KM-12; assay: cells; design: species or system JFCR39 human cancer cell lines; JFCR39 panel growth inhibition, sulforhodamine B total protein after 48 h; details: Homo sapiens, KM12, 48 h
# Experimental: as §2
# [13] = system: BSY-1; assay: cells; design: species or system JFCR39 human cancer cell lines; JFCR39 panel growth inhibition, sulforhodamine B total protein after 48 h; details: 48 h; inhibitor; Log GI50, 48 h
# Experimental: as §2
# [14] = average of two replicates, read-out: IC50 Average
# [15] = replicate 1, read-out: IC50 (1)
# [16] = replicate 2, read-out: IC50 (2)
# [17] = replicate 1, relative to DMSO 1%, read-out: % viability, viability 1
# [18] = replicate 2, relative to DMSO 1%, read-out: % viability, viability 2
smiles,measurement,setting,value
C=C1CCC2C(C)(CCC=C(C)C)C(O)CCC2(C)C1Cc1c(OC)oc(CO)c(C)c1=O (centres unmarked) [Compound 12],Luminescence Raw1,"[1]; 0.04 µM, replicate 1",1994873
same,Luminescence Raw2,"[1]; 0.04 µM, replicate 2",2143826
same,Luminescence Raw1,"[1]; 0.2 µM, replicate 1",1779203
same,Luminescence Raw2,"[1]; 0.2 µM, replicate 2",1776317
same,Luminescence Raw1,"[1]; 1 µM, replicate 1",178477
same,Luminescence Raw2,"[1]; 1 µM, replicate 2",154679
same,Luminescence Raw1,"[1]; 4 µM, replicate 1",122950
same,Luminescence Raw2,"[1]; 4 µM, replicate 2",117902
same,Luminescence Raw1,"[1]; 10 µM, replicate 1",130161
same,Luminescence Raw2,"[1]; 10 µM, replicate 2",130882
same,Luminescence Raw1,"[1]; 20 µM, replicate 1",78962
same,Luminescence Raw2,"[1]; 20 µM, replicate 2",90500
same,IC50,[1]; [14],342 nM
same,IC50,"[1]; average±SEM, read-out: IC50",340 ± 30 nM
same,IC50,[1]; [15],371 nM
same,IC50,[1]; [16],314 nM
same,viability at 0.04 µM,[2]; [17],96.8%
same,viability at 0.04 µM,[2]; [18],104%
same,viability at 0.2 µM,[2]; [17],86.4%
same,viability at 0.2 µM,[2]; [18],86.2%
same,viability at 1 µM,[2]; [17],8.66%
same,viability at 1 µM,[2]; [18],7.51%
same,viability at 4 µM,[2]; [17],5.97%
same,viability at 4 µM,[2]; [18],5.72%
same,viability at 10 µM,[2]; [17],6.32%
same,viability at 10 µM,[2]; [18],6.35%
same,viability at 20 µM,[2]; [17],3.83%
same,viability at 20 µM,[2]; [18],4.39%
same,EC50,[3],< 200 nM
same,Luminescence Raw1,[4]; 0.04 µM,3578369
same,Luminescence Raw2,[4]; 0.04 µM,3458604
same,Luminescence Raw1,[4]; 0.2 µM,4007302
same,Luminescence Raw2,[4]; 0.2 µM,3578369
same,Luminescence Raw1,[4]; 1 µM,2865222
same,Luminescence Raw2,[4]; 1 µM,3493234
same,Luminescence Raw1,[4]; 4 µM,415037
same,Luminescence Raw2,[4]; 4 µM,331384
same,Luminescence Raw1,[4]; 10 µM,181387
same,Luminescence Raw2,[4]; 10 µM,175618
same,Luminescence Raw1,[4]; 20 µM,189320
same,Luminescence Raw2,[4]; 20 µM,161917
same,IC50,[4]; [14],3.29 µM
same,IC50,"[4]; average±SEM, read-out: IC50",3.29 ± 0.16 µM
same,IC50,[4]; [15],3.13 µM
same,IC50,[4]; [16],3.45 µM
same,viability at 0.04 µM,[5]; [17],139%
same,viability at 0.04 µM,[5]; [18],135%
same,viability at 0.2 µM,[5]; [17],156%
same,viability at 0.2 µM,[5]; [18],139%
same,viability at 1 µM,[5]; [17],112%
same,viability at 1 µM,[5]; [18],136%
same,viability at 4 µM,[5]; [17],16.2%
same,viability at 4 µM,[5]; [18],12.9%
same,viability at 10 µM,[5]; [17],7.07%
same,viability at 10 µM,[5]; [18],6.84%
same,viability at 20 µM,[5]; [17],7.38%
same,viability at 20 µM,[5]; [18],6.31%
same,Log GI50,[6],-5.948 M
same,GI50,[7],6.24 µM
same,Log GI50,[8],-6.218 M
same,Log GI50,[9],-4.935 M
same,Log GI50,[10],-7.132 M
same,Log GI50,[11],-4.976 M
same,GI50,[12],12.9 µM
same,Log GI50,[13],-5.304 M
